Data reported in article PMC13509954 (Antioxidants, 2026).

Target: lactoperoxidase (LPO) (Bos taurus, UniProt P80025)
Experiment: LPO inhibition, peroxidase selectivity profiling
Format: biochemical

IC50 | Compound
890 nM | Cc1ccc2nc(-c3cccnc3)c(Nc3ccc4c(c3)OCO4)n2c1 [NE-2-6]
2250 nM | COc1ccc(-c2nc3cc(C)ccn3c2Nc2ccc3c(c2)OCO3)cc1 [NE-2-7]
1050 nM | Cc1ccn2c(Nc3ccc4c(c3)OCO4)c(-c3ccc(O)cc3)nc2c1 [NE-2-8]
